Source: ChEMBL document CHEMBL4316621, “A potent seven-membered cyclic BTK (Bruton's tyrosine Kinase) chiral inhibitor conceived by structure-based drug design to lock its bioactive conformation” (Bioorg Med Chem Lett, 2019)
Values after ≈ are worked out from the molar mass of the structure shown.

Key:
[1] = Intrinsic clearance in rat hepatocytes assessed per million cells at 1 uM preincubated for 1 hr followed by NADPH addition and measured by LC/MS/MS analysis; assay type: ADME, cell-based, Hepatocyte; conditions: read-out: CLH
[2] = Intrinsic clearance in human hepatocytes assessed per million cells at 1 uM preincubated for 1 hr followed by NADPH addition and measured by LC/MS/MS analysis; assay type: ADME, cell-based, Hepatocyte; conditions: read-out: CLH
Cytochrome P450 3A4 [3] = target: T1, Cytochrome P450 3A4 (Homo sapiens, UniProt P08684); assay: Time-dependent inhibition of CYP3A4 (unknown origin); assay type: ADME
T1 sequence (P08684 whole entry): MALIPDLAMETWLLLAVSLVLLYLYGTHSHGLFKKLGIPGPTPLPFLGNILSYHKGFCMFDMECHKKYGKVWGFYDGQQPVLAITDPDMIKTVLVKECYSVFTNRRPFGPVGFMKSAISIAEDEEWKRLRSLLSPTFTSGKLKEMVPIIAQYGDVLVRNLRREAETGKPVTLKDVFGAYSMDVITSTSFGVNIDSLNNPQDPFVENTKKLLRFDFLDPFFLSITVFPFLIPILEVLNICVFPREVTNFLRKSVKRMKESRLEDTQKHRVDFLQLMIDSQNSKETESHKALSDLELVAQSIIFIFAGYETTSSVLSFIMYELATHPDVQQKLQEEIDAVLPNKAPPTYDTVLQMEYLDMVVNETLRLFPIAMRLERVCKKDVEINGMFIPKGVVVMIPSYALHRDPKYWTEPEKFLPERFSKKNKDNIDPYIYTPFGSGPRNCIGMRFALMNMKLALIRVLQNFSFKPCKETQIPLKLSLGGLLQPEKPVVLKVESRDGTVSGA

[4] = Intrinsic clearance in rat liver microsomes at 1 uM preincubated for 1 hr followed by NADPH addition and measured by LC/MS/MS analysis; assay type: ADME, Microsome; conditions: read-out: CLH
[5] = Intrinsic clearance in human liver microsomes at 1 uM preincubated for 1 hr followed by NADPH addition and measured by LC/MS/MS analysis; assay type: ADME, Microsome; conditions: read-out: CLH
[6] = Solubility of the compound by LYSA; assay type: physicochemical
Cytochrome P450 3A4 [7] = target: T1, Cytochrome P450 3A4; assay: Inhibition of CYP3A4 (unknown origin); assay type: ADME
Cytochrome P450 2C9 = Cytochrome P450 2C9 (Homo sapiens, UniProt P11712); assay: Inhibition of CYP2C9 (unknown origin); assay type: ADME
Sequence of Cytochrome P450 2C9 (P11712 whole entry): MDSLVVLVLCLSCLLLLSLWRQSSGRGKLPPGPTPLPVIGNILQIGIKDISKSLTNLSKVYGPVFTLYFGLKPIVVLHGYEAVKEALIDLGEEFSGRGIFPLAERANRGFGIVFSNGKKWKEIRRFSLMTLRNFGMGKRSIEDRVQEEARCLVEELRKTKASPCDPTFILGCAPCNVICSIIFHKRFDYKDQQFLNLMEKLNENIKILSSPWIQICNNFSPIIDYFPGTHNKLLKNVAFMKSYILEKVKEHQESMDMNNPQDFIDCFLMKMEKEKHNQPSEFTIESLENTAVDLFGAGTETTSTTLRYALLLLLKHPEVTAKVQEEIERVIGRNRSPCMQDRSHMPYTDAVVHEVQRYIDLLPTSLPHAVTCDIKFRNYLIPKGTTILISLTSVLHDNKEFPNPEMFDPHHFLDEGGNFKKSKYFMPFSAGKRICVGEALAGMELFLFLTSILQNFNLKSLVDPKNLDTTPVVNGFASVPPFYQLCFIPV

Cytochrome P450 2D6 = Cytochrome P450 2D6 (Homo sapiens, UniProt P10635); assay: Inhibition of CYP2D6 (unknown origin); assay type: ADME
Sequence of Cytochrome P450 2D6 (P10635 whole entry): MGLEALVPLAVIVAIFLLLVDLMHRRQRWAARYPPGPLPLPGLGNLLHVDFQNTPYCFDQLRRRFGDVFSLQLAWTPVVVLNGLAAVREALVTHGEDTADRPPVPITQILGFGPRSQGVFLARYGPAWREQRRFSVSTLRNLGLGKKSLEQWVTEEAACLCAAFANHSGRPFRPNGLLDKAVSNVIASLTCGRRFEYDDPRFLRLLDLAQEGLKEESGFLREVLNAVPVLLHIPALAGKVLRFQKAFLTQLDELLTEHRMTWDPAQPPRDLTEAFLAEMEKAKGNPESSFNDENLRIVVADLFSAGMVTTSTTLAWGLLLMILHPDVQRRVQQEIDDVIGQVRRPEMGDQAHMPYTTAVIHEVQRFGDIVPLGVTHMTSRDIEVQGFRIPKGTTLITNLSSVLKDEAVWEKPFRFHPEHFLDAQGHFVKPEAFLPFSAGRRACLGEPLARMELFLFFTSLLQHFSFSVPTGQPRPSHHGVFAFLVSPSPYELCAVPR

[8] = target: T2, Tyrosine-protein kinase BTK (Homo sapiens, UniProt Q06187); assay: Inhibition of Kinase Tracer 178 binding to biotinylated-BTK (unknown origin) measured after 18 to 24 hrs by Europium-labeled Streptavidin conjugate based TR-FRET assay
T2 sequence (Q06187 whole entry): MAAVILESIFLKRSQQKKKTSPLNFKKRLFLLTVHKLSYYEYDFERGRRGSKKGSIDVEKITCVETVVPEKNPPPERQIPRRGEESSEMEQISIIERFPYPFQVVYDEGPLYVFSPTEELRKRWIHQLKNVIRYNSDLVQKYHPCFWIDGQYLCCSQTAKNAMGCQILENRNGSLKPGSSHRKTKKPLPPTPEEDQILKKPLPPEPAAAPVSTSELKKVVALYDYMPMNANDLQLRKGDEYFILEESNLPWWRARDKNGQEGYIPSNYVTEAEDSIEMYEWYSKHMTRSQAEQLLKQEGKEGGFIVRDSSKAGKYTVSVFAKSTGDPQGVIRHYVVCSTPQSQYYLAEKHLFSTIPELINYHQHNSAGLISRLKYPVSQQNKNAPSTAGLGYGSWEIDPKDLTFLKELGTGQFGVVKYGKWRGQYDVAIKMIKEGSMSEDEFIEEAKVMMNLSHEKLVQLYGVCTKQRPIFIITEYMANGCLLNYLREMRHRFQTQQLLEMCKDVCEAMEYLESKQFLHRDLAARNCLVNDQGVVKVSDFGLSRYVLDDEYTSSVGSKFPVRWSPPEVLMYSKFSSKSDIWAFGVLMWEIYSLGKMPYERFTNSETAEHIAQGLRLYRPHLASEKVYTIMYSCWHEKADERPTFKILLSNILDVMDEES

[9] = target: T2, Tyrosine-protein kinase BTK; assay: Inhibition of BTK in goat F(ab')2 anti-human IgM-stimulated human whole blood assessed as suppression of CD69 expression on B cells pretreated for 30 mins followed by goat F(ab')2 anti-human IgM-stimulation and measured after 20 hrs by flow cytometry; assay type: tissue-based

Cn1c2c(cc(Nc3ccc(C(=O)N4CCOCC4)cn3)c1=O)-c1cccc(-n3ncc4cc(C(C)(C)C)cc(F)c4c3=O)c1CC(O)C2 (racemic)
hepatocyte CLint at 1 µM [1]: 3.3 µL/min/1e6 cells | hepatocyte CLint at 1 µM [2]: 0.3 µL/min/1e6 cells | TDI (Cytochrome P450 3A4 [3]): 0% | microsomal CLint at 1 µM [4]: 19 µL/min/mg | microsomal CLint at 1 µM [5]: 29 µL/min/mg | solubility [6]: 1 µg/mL (≈ 1.5 µM) | INH (Cytochrome P450 3A4 [7]): > 7 µM | INH (Cytochrome P450 2C9): > 7 µM | INH (Cytochrome P450 2D6): > 7 µM

Cn1c2c(cc(Nc3ccc(C(=O)N4CCOCC4)cn3)c1=O)-c1cccc(-n3ncc4cc(C(C)(C)C)cc(F)c4c3=O)c1C[C@H](O)C2
TDI (Cytochrome P450 3A4 [3]): Not Active

Cn1nc(-c2cccc(-n3ncc4cc(C(C)(C)C)cc(F)c4c3=O)c2CO)cc(Nc2ccc(C(=O)N3CCOCC3)cn2)c1=O
hepatocyte CLint at 1 µM [1]: 2 µL/min/1e6 cells | hepatocyte CLint at 1 µM [2]: 0.3 µL/min/1e6 cells | TDI (Cytochrome P450 3A4 [3]): 0% | IC50 [8]: < 0.001 µM | microsomal CLint at 1 µM [4]: 29 µL/min/mg | microsomal CLint at 1 µM [5]: 20 µL/min/mg | solubility [6]: 1.1 µg/mL (≈ 1.72 µM) | INH (Cytochrome P450 3A4 [7]): > 10 µM | INH (Cytochrome P450 2C9): > 10 µM | INH (Cytochrome P450 2D6): > 10 µM | IC50 [9]: 0.023 µM
